Measured values taken from ChEMBL document CHEMBL1201862, “PubChem BioAssay data set” (2004).
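Protocol summary: plate cells (96-well), add compound at 5 concentrations, incubate 48 h, interpolate endpoints linearly. GI50 is the concentration that inhibits growth by half.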 Calls of active or inactive are those of the source. Cut-off read from the data, not from the text of the source: active = GI50 up to about 1.1 µM and inactive = higher.

Experiments:
Assay in all cases: inhibition of tumour cell growth, NCI panel, 48 h
SW-620 = tested on: SW-620
OVCAR-3 = tested on: OVCAR-3
SF-539 = tested on: SF-539
UACC-257 = tested on: UACC-257
NCI-H226 = tested on: NCI-H226
HCT-116 = tested on: HCT-116
OVCAR-8 = tested on: OVCAR-8
IGROV-1 = tested on: IGROV-1
A549 = tested on: A549
ACHN = tested on: ACHN
SK-MEL-28 = tested on: SK-MEL-28
OVCAR-4 = tested on: OVCAR-4
NCI-H23 = tested on: NCI-H23
UO-31 = tested on: UO-31
SF-268 = tested on: SF-268
MCF7 = tested on: MCF7
HCC 2998 = tested on: HCC 2998
TK-10 = tested on: TK-10
UACC-62 = tested on: UACC-62
NCI-H460 = tested on: NCI-H460

SMILES | GI50 (SW-620) | GI50 (OVCAR-3) | GI50 (SF-539) | GI50 (UACC-257) | GI50 (NCI-H226) | GI50 (HCT-116) | GI50 (OVCAR-8) | GI50 (IGROV-1) | GI50 (A549) | GI50 (ACHN) | GI50 (SK-MEL-28) | GI50 (OVCAR-4) | GI50 (NCI-H23) | GI50 (UO-31) | GI50 (SF-268) | GI50 (MCF7) | GI50 (HCC 2998) | GI50 (TK-10) | GI50 (UACC-62) | GI50 (NCI-H460)
CCOC(=O)C(O)(NC(C)=O)C(F)(F)F (centres undefined) | > 100 µM (inactive) | > 100 µM (inactive) | > 100 µM (inactive) | > 100 µM (inactive) | > 100 µM (inactive) | > 100 µM (inactive) | > 100 µM (inactive) | > 100 µM (inactive) | > 100 µM (inactive) | > 100 µM (inactive) | > 100 µM (inactive) | > 100 µM (inactive) | > 100 µM (inactive) | > 100 µM (inactive) | > 100 µM (inactive) | > 100 µM (inactive) | > 100 µM (inactive) | > 100 µM (inactive) | > 100 µM (inactive) | –
CCCCC1=NNC(=O)C1 | > 100 µM (inactive) | > 100 µM (inactive) | > 100 µM (inactive) | > 100 µM (inactive) | > 100 µM (inactive) | > 100 µM (inactive) | > 100 µM (inactive) | > 100 µM (inactive) | > 100 µM (inactive) | > 100 µM (inactive) | > 100 µM (inactive) | > 100 µM (inactive) | > 100 µM (inactive) | > 100 µM (inactive) | – | > 100 µM (inactive) | > 100 µM (inactive) | – | > 100 µM (inactive) | > 100 µM (inactive)
COC(=O)C(C/C=C(\C)c1ccccc1)C(C)=O (centres undefined) | > 100 µM (inactive) | 50.6 µM (inactive) | > 100 µM (inactive) | > 48.3 µM (inactive) | > 72.6 µM (inactive) | 57.1 µM (inactive) | > 100 µM (inactive) | > 100 µM (inactive) | 53.1 µM (inactive) | – | > 100 µM (inactive) | 56 µM (inactive) | 90.6 µM (inactive) | 33.2 µM (inactive) | 97.3 µM (inactive) | > 70.3 µM (inactive) | > 100 µM (inactive) | – | > 63.4 µM (inactive) | 85.3 µM (inactive)
CN(C)/N=C1\CC(c2ccccc2)C(C#N)(C#N)C1(C#N)C#N (centres undefined) | 6.61 µM (inactive) | – | 41.4 µM (inactive) | 18.6 µM (inactive) | 23.8 µM (inactive) | 17.8 µM (inactive) | 21.1 µM (inactive) | 21.4 µM (inactive) | 36.4 µM (inactive) | 18.9 µM (inactive) | 19.2 µM (inactive) | 33.2 µM (inactive) | 24.1 µM (inactive) | 18.6 µM (inactive) | 20.1 µM (inactive) | 29.9 µM (inactive) | 18.7 µM (inactive) | 17.5 µM (inactive) | 16 µM (inactive) | –
CC1(C)OC2OC(C(=O)c3ccccc3)C3OC(C)(C)OC3C2O1 (centres undefined) | > 100 µM (inactive) | > 100 µM (inactive) | > 100 µM (inactive) | > 100 µM (inactive) | > 100 µM (inactive) | > 100 µM (inactive) | > 100 µM (inactive) | > 100 µM (inactive) | – | > 100 µM (inactive) | – | > 100 µM (inactive) | > 100 µM (inactive) | > 100 µM (inactive) | > 100 µM (inactive) | > 100 µM (inactive) | > 100 µM (inactive) | > 100 µM (inactive) | > 100 µM (inactive) | > 100 µM (inactive)
C=CCN1C(=O)/C(=C/c2ccco2)N=C1SC1OC(COC(C)=O)C(OC(C)=O)C(OC(C)=O)C1OC(C)=O (centres undefined) | > 100 µM (inactive) | > 100 µM (inactive) | > 100 µM (inactive) | > 100 µM (inactive) | 78.3 µM (inactive) | – | > 100 µM (inactive) | > 100 µM (inactive) | – | > 100 µM (inactive) | > 100 µM (inactive) | > 100 µM (inactive) | > 100 µM (inactive) | – | – | 62.5 µM (inactive) | > 100 µM (inactive) | > 100 µM (inactive) | 83.9 µM (inactive) | > 100 µM (inactive)
O=C1C[C@@]23CCC4(CC2CCC[C@H]3O1)OCCO4 (some centres undefined) | > 100 µM (inactive) | > 100 µM (inactive) | > 100 µM (inactive) | > 100 µM (inactive) | > 100 µM (inactive) | > 100 µM (inactive) | > 100 µM (inactive) | > 100 µM (inactive) | > 100 µM (inactive) | > 100 µM (inactive) | > 100 µM (inactive) | > 100 µM (inactive) | > 100 µM (inactive) | – | > 100 µM (inactive) | > 100 µM (inactive) | > 100 µM (inactive) | – | > 100 µM (inactive) | > 100 µM (inactive)
N=C1NC(c2ccc(Cl)cc2)=CC(c2cccc(Cl)c2)S1 (centres undefined) | 34.5 µM (inactive) | 41.7 µM (inactive) | 48.8 µM (inactive) | 25.2 µM (inactive) | 26.7 µM (inactive) | 26.4 µM (inactive) | 38.6 µM (inactive) | 30.9 µM (inactive) | 24.7 µM (inactive) | 24.4 µM (inactive) | – | 20.3 µM (inactive) | 34.8 µM (inactive) | 29 µM (inactive) | 41.8 µM (inactive) | 24.8 µM (inactive) | 27.7 µM (inactive) | 22.4 µM (inactive) | 18.8 µM (inactive) | 26.4 µM (inactive)
CSc1c(C#N)c(=O)n(N)c2[nH]nc(C)c12 | > 100 µM (inactive) | – | > 100 µM (inactive) | > 100 µM (inactive) | > 100 µM (inactive) | > 100 µM (inactive) | > 100 µM (inactive) | – | > 100 µM (inactive) | – | > 100 µM (inactive) | > 100 µM (inactive) | > 100 µM (inactive) | > 100 µM (inactive) | > 100 µM (inactive) | > 100 µM (inactive) | > 100 µM (inactive) | > 100 µM (inactive) | > 100 µM (inactive) | > 100 µM (inactive)
CSc1nncc2[nH]c(C)nc12 | > 100 µM (inactive) | > 100 µM (inactive) | > 100 µM (inactive) | > 100 µM (inactive) | > 100 µM (inactive) | > 100 µM (inactive) | > 100 µM (inactive) | > 100 µM (inactive) | > 100 µM (inactive) | > 100 µM (inactive) | > 100 µM (inactive) | > 100 µM (inactive) | > 100 µM (inactive) | > 100 µM (inactive) | – | > 100 µM (inactive) | > 100 µM (inactive) | > 100 µM (inactive) | > 100 µM (inactive) | –
O=c1c2cccnc2[nH]c2ccc3cn[nH]c3c12 | > 10 µM (inactive) | > 10 µM (inactive) | 7.52 µM (inactive) | > 10 µM (inactive) | 5.38 µM (inactive) | 3.61 µM (inactive) | 6.76 µM (inactive) | 3.33 µM (inactive) | > 10 µM (inactive) | 3.97 µM (inactive) | > 10 µM (inactive) | > 10 µM (inactive) | > 10 µM (inactive) | – | > 10 µM (inactive) | 7.06 µM (inactive) | > 10 µM (inactive) | > 10 µM (inactive) | > 10 µM (inactive) | 7.43 µM (inactive)
O=C(O)CC(O)(C(=O)O)C(O)C(=O)O (centres undefined) | > 1000 µM (inactive) | > 1000 µM (inactive) | > 1000 µM (inactive) | > 1000 µM (inactive) | > 1000 µM (inactive) | > 1000 µM (inactive) | > 1000 µM (inactive) | > 1000 µM (inactive) | > 1000 µM (inactive) | > 1000 µM (inactive) | > 1000 µM (inactive) | > 1000 µM (inactive) | > 1000 µM (inactive) | – | > 1000 µM (inactive) | > 1000 µM (inactive) | > 1000 µM (inactive) | > 1000 µM (inactive) | 933 µM (inactive) | > 1000 µM (inactive)
CC(CC(C)[C@H]1CCC2[C@H]3C(CC[C@@]21C)[C@@]1(C)CCC(O)C[C@H]1C[C@@H]3O)C(=O)O (some centres undefined) | > 100 µM (inactive) | – | > 100 µM (inactive) | > 100 µM (inactive) | > 100 µM (inactive) | > 100 µM (inactive) | > 100 µM (inactive) | > 100 µM (inactive) | > 100 µM (inactive) | > 100 µM (inactive) | > 100 µM (inactive) | > 100 µM (inactive) | > 100 µM (inactive) | 66.2 µM (inactive) | > 100 µM (inactive) | > 100 µM (inactive) | > 100 µM (inactive) | > 100 µM (inactive) | > 100 µM (inactive) | > 100 µM (inactive)
Clc1ccc(Cc2nc3cc(Cl)c(Cl)cc3n2CC2CCCN3CCCCC23)cc1 (centres undefined) | 13.6 µM (inactive) | 11 µM (inactive) | 10.4 µM (inactive) | 3.81 µM (inactive) | 17.3 µM (inactive) | 9.68 µM (inactive) | 12.8 µM (inactive) | 8.87 µM (inactive) | 13.2 µM (inactive) | 10.1 µM (inactive) | 6.93 µM (inactive) | 16.7 µM (inactive) | – | 0.285 µM (active) | 8.17 µM (inactive) | 10.7 µM (inactive) | 3.68 µM (inactive) | 14.4 µM (inactive) | 7.8 µM (inactive) | 7.53 µM (inactive)
c1ccc2c(c1)[nH]c1c2cc[n+]2cc3c(cc12)CCCC3 | 2.1 µM (inactive) | 1.16 µM (inactive) | 1.64 µM (inactive) | 4.09 µM (inactive) | 2.03 µM (inactive) | 1.59 µM (inactive) | 2.42 µM (inactive) | 7.18 µM (inactive) | 6.93 µM (inactive) | 3.75 µM (inactive) | 1.47 µM (inactive) | 1.72 µM (inactive) | 2.24 µM (inactive) | 16.3 µM (inactive) | 2.93 µM (inactive) | 2.13 µM (inactive) | 1.87 µM (inactive) | 6.68 µM (inactive) | – | 1.34 µM (inactive)
